Measurements: PubChem BioAssay (NCI)
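Interpolation was linear, between the two tested concentrations surrounding the appropriate level; five concentrations were tested over 48 hours in 96-well plates. The concentration for 50% growth inhibition is given as GI50. TGI: concentration producing complete growth inhibition.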

What was measured:
Test in all cases: NCI anticancer screen, dose series, 48 h
CAKI-1 renal = system: CAKI-1 renal
OVCAR-5 ovarian = system: OVCAR-5 ovarian
TK-10 renal = system: TK-10 renal
EKVX NSCLC = system: EKVX NSCLC
RXF 393 renal = system: RXF 393 renal
MOLT-4 leukemia = system: MOLT-4 leukemia
HT29 colon = system: HT29 colon
A549 NSCLC = system: A549 NSCLC
MCF7 breast = system: MCF7 breast
SK-MEL-2 melanoma = system: SK-MEL-2 melanoma
786-0 renal = system: 786-0 renal
BT-549 breast = system: BT-549 breast
SF-268 CNS = system: SF-268 CNS
NCI-H460 lung = system: NCI-H460 lung
SNB-19 CNS = system: SNB-19 CNS
MDA-MB-435 = system: MDA-MB-435
SR leukemia = system: SR leukemia
COLO 205 colon = system: COLO 205 colon
RPMI-8226 leukemia = system: RPMI-8226 leukemia
NCI/ADR-RES ovarian = system: NCI/ADR-RES ovarian
M14 melanoma = system: M14 melanoma
PC-3 prostate = system: PC-3 prostate
U251 CNS = system: U251 CNS
UACC-257 melanoma = system: UACC-257 melanoma
UACC-62 melanoma = system: UACC-62 melanoma
SK-OV-3 ovarian = system: SK-OV-3 ovarian
LOX IMVI melanoma = system: LOX IMVI melanoma
HOP-92 NSCLC = system: HOP-92 NSCLC
CCRF-CEM leukemia = system: CCRF-CEM leukemia
DU-145 prostate = system: DU-145 prostate
MDA-MB-231 breast = system: MDA-MB-231 breast
SF-539 CNS = system: SF-539 CNS
SN12C renal = system: SN12C renal
KM12 colon = system: KM12 colon
OVCAR-4 ovarian = system: OVCAR-4 ovarian
NCI-H23 lung = system: NCI-H23 lung
IGROV1 ovarian = system: IGROV1 ovarian
HL-60(TB) leukemia = system: HL-60(TB) leukemia
HS 578T breast = system: HS 578T breast
T-47D breast = system: T-47D breast
HOP-62 NSCLC = system: HOP-62 NSCLC
SF-295 CNS = system: SF-295 CNS
NCI-H226 lung = system: NCI-H226 lung
SK-MEL-28 melanoma = system: SK-MEL-28 melanoma
K-562 leukemia = system: K-562 leukemia
OVCAR-3 ovarian = system: OVCAR-3 ovarian
NCI-H522 lung = system: NCI-H522 lung
ACHN renal = system: ACHN renal
A498 renal = system: A498 renal
SK-MEL-5 melanoma = system: SK-MEL-5 melanoma
MALME-3M melanoma = system: MALME-3M melanoma
SNB-75 CNS = system: SNB-75 CNS

Cc1nn(-c2ccc([N+](=O)[O-])cc2)c2ncnc(N/N=C/c3ccccc3O)c12
GI50 (CAKI-1 renal): 496 nM | TGI (CAKI-1 renal): 1820 nM | GI50 (OVCAR-5 ovarian): 2040 nM | TGI (OVCAR-5 ovarian): > 100000 nM | GI50 (TK-10 renal): 942 nM | TGI (TK-10 renal): 7780 nM | GI50 (EKVX NSCLC): 2410 nM | TGI (EKVX NSCLC): > 100000 nM | GI50 (RXF 393 renal): 366 nM | TGI (RXF 393 renal): 1620 nM | GI50 (MOLT-4 leukemia): 321 nM | TGI (MOLT-4 leukemia): > 100000 nM | GI50 (HT29 colon): 1300 nM | TGI (HT29 colon): > 100000 nM | GI50 (A549 NSCLC): 563 nM | TGI (A549 NSCLC): 5410 nM | GI50 (MCF7 breast): 360 nM | TGI (MCF7 breast): > 100000 nM | GI50 (SK-MEL-2 melanoma): 1570 nM | TGI (SK-MEL-2 melanoma): > 45000 nM | GI50 (786-0 renal): 539 nM | TGI (786-0 renal): 3410 nM | GI50 (BT-549 breast): 431 nM | TGI (BT-549 breast): > 42400 nM | GI50 (SF-268 CNS): 313 nM | TGI (SF-268 CNS): > 100000 nM | GI50 (NCI-H460 lung): 340 nM | TGI (NCI-H460 lung): 1460 nM | GI50 (SNB-19 CNS): 507 nM | TGI (SNB-19 CNS): 8650 nM | GI50 (MDA-MB-435): 654 nM | TGI (MDA-MB-435): > 100000 nM | GI50 (SR leukemia): 166 nM | GI50 (COLO 205 colon): 385 nM | TGI (COLO 205 colon): 10400 nM | GI50 (RPMI-8226 leukemia): 619 nM | TGI (RPMI-8226 leukemia): > 100000 nM | GI50 (NCI/ADR-RES ovarian): 337 nM | TGI (NCI/ADR-RES ovarian): 3660 nM | GI50 (M14 melanoma): 299 nM | TGI (M14 melanoma): 2200 nM | GI50 (PC-3 prostate): 587 nM | TGI (PC-3 prostate): > 100000 nM | GI50 (U251 CNS): 332 nM | TGI (U251 CNS): 2440 nM | GI50 (UACC-257 melanoma): 1470 nM | TGI (UACC-257 melanoma): 8560 nM | GI50 (UACC-62 melanoma): 986 nM | TGI (UACC-62 melanoma): 3760 nM | GI50 (SK-OV-3 ovarian): 497 nM | TGI (SK-OV-3 ovarian): > 22100 nM | GI50 (LOX IMVI melanoma): 220 nM | TGI (LOX IMVI melanoma): 1470 nM | GI50 (HOP-92 NSCLC): 806 nM | TGI (HOP-92 NSCLC): 4630 nM | GI50 (CCRF-CEM leukemia): 222 nM | TGI (CCRF-CEM leukemia): > 100000 nM | GI50 (DU-145 prostate): 382 nM | TGI (DU-145 prostate): > 100000 nM | GI50 (MDA-MB-231 breast): 482 nM | TGI (MDA-MB-231 breast): 3970 nM | GI50 (SF-539 CNS): 424 nM | TGI (SF-539 CNS): 1770 nM | GI50 (SN12C renal): 399 nM | TGI (SN12C renal): 3170 nM | GI50 (KM12 colon): 379 nM | TGI (KM12 colon): > 100000 nM | GI50 (OVCAR-4 ovarian): 202 nM | TGI (OVCAR-4 ovarian): 4620 nM | GI50 (NCI-H23 lung): 864 nM | TGI (NCI-H23 lung): 3760 nM | GI50 (IGROV1 ovarian): 462 nM | TGI (IGROV1 ovarian): 4310 nM | GI50 (HL-60(TB) leukemia): 310 nM | GI50 (HS 578T breast): 1430 nM | TGI (HS 578T breast): 8270 nM | GI50 (T-47D breast): 542 nM | TGI (T-47D breast): 4950 nM | GI50 (HOP-62 NSCLC): 397 nM | TGI (HOP-62 NSCLC): 3290 nM | GI50 (SF-295 CNS): 1140 nM | TGI (SF-295 CNS): 10300 nM | GI50 (NCI-H226 lung): 2560 nM | TGI (NCI-H226 lung): > 26200 nM | GI50 (SK-MEL-28 melanoma): 443 nM | TGI (SK-MEL-28 melanoma): 5530 nM | GI50 (K-562 leukemia): 448 nM | TGI (K-562 leukemia): > 100000 nM | GI50 (OVCAR-3 ovarian): 262 nM | TGI (OVCAR-3 ovarian): 1560 nM | GI50 (NCI-H522 lung): 365 nM | TGI (NCI-H522 lung): 7560 nM | GI50 (ACHN renal): 300 nM | TGI (ACHN renal): 1290 nM | GI50 (A498 renal): 2920 nM | TGI (A498 renal): > 66900 nM | GI50 (SK-MEL-5 melanoma): 448 nM | TGI (SK-MEL-5 melanoma): 2250 nM | GI50 (MALME-3M melanoma): 620 nM | TGI (MALME-3M melanoma): 3950 nM | GI50 (SNB-75 CNS): 554 nM | TGI (SNB-75 CNS): 4230 nM
